Source: PubChem BioAssay (NCI)
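Dose response: 5 concentrations. Exposure: 48 h. Format: 96-well plates. Endpoint: linear interpolation; highest concentration if not reached. TGI: total growth inhibition.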 *1 amine or outer side, *2 acyl side, *3 side chain or, on linkers, in order; H or OH if unused. Where a SMILES comes first, the peptide text is derived from it. [ ]: non-standard residue; d: D form. The star is where a group is joined. ξ: configuration not given here. X27 = O=C([C@H]1CCC[C@H]1N[*:1])[*:2]; ξW = NC(Cc1c[nH]c2ccccc12)C(=O)O; ξF = NC(Cc1ccccc1)C(=O)O; Boc = CC(C)(C)OC(=O)*; ξK = NCCCCC(N)C(=O)O; ξT = CC(O)C(N)C(=O)O; tBu = CC(C)(C)*

What was measured:
Test in all cases: NCI-60 cell line screen, 48 h
MDA-N = system: MDA-N
K-562 leukemia = system: K-562 leukemia
CCRF-CEM leukemia = system: CCRF-CEM leukemia
HCT-15 colon = system: HCT-15 colon
SK-MEL-28 melanoma = system: SK-MEL-28 melanoma
SN12C renal = system: SN12C renal
SK-MEL-5 melanoma = system: SK-MEL-5 melanoma
TK-10 renal = system: TK-10 renal
T-47D breast = system: T-47D breast
U251 CNS = system: U251 CNS
OVCAR-3 ovarian = system: OVCAR-3 ovarian
NCI-H23 lung = system: NCI-H23 lung
UACC-62 melanoma = system: UACC-62 melanoma
MALME-3M melanoma = system: MALME-3M melanoma
RPMI-8226 leukemia = system: RPMI-8226 leukemia
SF-268 CNS = system: SF-268 CNS
MCF7 breast = system: MCF7 breast
A549 NSCLC = system: A549 NSCLC
UO-31 renal = system: UO-31 renal
BT-549 breast = system: BT-549 breast

Structure (SMILES)	TGI (MDA-N) [µM]	TGI (K-562 leukemia) [µM]	TGI (CCRF-CEM leukemia) [µM]	TGI (HCT-15 colon) [µM]	TGI (SK-MEL-28 melanoma) [µM]	TGI (SN12C renal) [µM]	TGI (SK-MEL-5 melanoma) [µM]	TGI (TK-10 renal) [µM]	TGI (T-47D breast) [µM]	TGI (U251 CNS) [µM]	TGI (OVCAR-3 ovarian) [µM]	TGI (NCI-H23 lung) [µM]	TGI (UACC-62 melanoma) [µM]	TGI (MALME-3M melanoma) [µM]	TGI (RPMI-8226 leukemia) [µM]	TGI (SF-268 CNS) [µM]	TGI (MCF7 breast) [µM]	TGI (A549 NSCLC) [µM]	TGI (UO-31 renal) [µM]	TGI (BT-549 breast) [µM]
NC(=O)C(=O)c1ncn(Cc2ccccc2)c1N	> 100	> 100	> 100	> 100	> 100	> 100	> 100	> 100	> 100	> 100	> 100	> 100	> 100	> 100	> 100	> 100	> 100	> 100	–	–
CC(C)C1OC(N)=C(C#N)C1(C#N)C#N (centres undefined)	> 100	> 100	91.4	–	–	> 100	> 100	> 100	> 100	> 100	–	> 100	> 100	> 100	79.2	> 100	> 100	> 100	> 100	–
O=C(NC(Cl)(C(F)(F)F)C(F)(F)F)c1ccc(F)cc1	> 100	> 100	> 100	> 100	> 100	> 100	> 100	> 100	> 100	> 100	> 100	> 100	–	> 100	> 100	> 100	> 100	> 100	> 100	–
c1ccc2c(c1)NCCC(=NC1CCCCC1)N2	> 100	> 100	> 100	> 100	> 100	> 100	> 100	> 100	–	> 100	> 100	> 100	> 100	> 100	> 100	> 100	–	> 100	> 100	> 100
FC(F)(F)c1ccc(Cc2nc3cc4ccccc4cc3[nH]2)cc1	–	> 100	> 100	> 100	> 100	> 100	> 100	> 100	> 100	> 100	> 100	> 100	> 100	> 100	> 100	> 100	> 100	> 100	> 100	> 100
Cc1ccc2c(=O)cc(Cc3cccs3)[nH]c2n1	–	> 100	> 100	> 100	> 100	> 100	> 100	> 100	> 100	> 100	> 100	> 100	> 100	> 100	> 100	> 100	> 100	> 100	> 100	> 100
CCN1CCCC(C#N)(c2ccccc2)CC1 (centres undefined)	> 100	> 100	–	> 100	> 100	–	> 100	> 100	> 100	> 100	–	> 100	–	> 100	> 100	> 100	–	> 100	> 100	–
CC(C)(C)OC(=O)N[C@H]1CC(O)c2ccccc2N(CC(=O)O)C1=O (some centres undefined)	–	–	> 100	> 100	> 100	> 100	> 100	> 100	–	–	> 100	> 100	> 100	> 100	–	> 100	–	> 100	> 100	–
CCN(CC)Cc1cc(Nc2c3ccccc3nc3c2[nH]c2ccccc23)cc(CN(CC)CC)c1O	2.07	> 100	–	3.4	5.3	2.18	2.95	11.7	–	2.19	–	2.62	3.02	–	–	4.73	9.07	10.4	4.62	2.83
Cc1[nH]c(=O)nc2c1C(NCCCN(C)C)c1cc(Cl)ccc1N2 (centres undefined)	–	26.9	34.8	–	27.2	28.2	–	32.5	–	29.3	33.6	32.3	26.2	30.3	44	30.5	–	28.1	26.4	–
O=C(CC(CC(=O)Oc1c(Br)cc(Br)cc1C(=O)O)C(=O)Oc1c(Br)cc(Br)cc1C(=O)O)Oc1c(Br)cc(Br)cc1C(=O)O	–	> 100	> 100	> 100	> 100	> 100	> 100	> 100	–	> 100	> 100	> 100	> 100	> 100	> 100	> 100	–	> 100	> 100	–
CC(=O)OC1CC2CCN3C(=O)c4cc5c(cc4[C@H](C1OC(C)=O)C23)OCO5 (some centres undefined)	–	> 100	> 100	> 100	> 100	> 100	–	> 100	–	> 100	> 100	> 100	> 100	> 100	> 100	> 100	–	> 100	> 100	–
CC1(C)CC(=O)C(/C=N/C(N)=S)=C(O)C1	> 100	–	> 100	> 100	> 100	> 100	> 100	> 100	–	> 100	> 100	> 100	> 100	–	–	> 100	> 100	> 100	> 100	> 100
CCOP(=O)(OCC)C(C)(C)N(C)/C(F)=N/C(F)(F)F	> 100	> 100	> 100	> 100	> 100	> 100	> 100	> 100	> 100	> 100	> 100	> 100	> 100	> 100	> 100	> 100	> 100	> 100	> 100	–
COc1cc2c(cc1C[C@H]1[C@@H]3C[C@H]4c5c(c6ccccc6n5C)C[C@@H]([C@@H]3CO[C@]1(C)OC(C)=O)N4C)c1c(n2C)C2C[C@H]3C(C(C)=O)=COC[C@H]3[C@H](C1)N2C	–	> 25	5.84	6.25	> 25	> 25	6.79	16.1	17.2	> 25	5.98	> 25	14.6	6.42	3.56	24	> 25	> 25	> 25	13.3
COC(=O)[C@H](Cc1ccccc1)NC(=O)/C(=C/C(C)C)NC(=O)[C@H](CCSC)NC=O	–	> 100	> 100	> 100	> 100	> 100	> 100	> 100	–	> 100	> 100	> 100	> 100	–	> 100	> 100	–	> 100	> 100	–
CCOP(=O)(C=C=C1CCC2[C@@H]3CCc4cc(OC)ccc4C3CC[C@]12C)OCC (some centres undefined)	26	10.7	–	24.8	23.9	23	14.2	25.6	26.6	25.5	24.2	20.8	18.2	30.3	–	28	20.7	18.4	–	–
COc1ccc(CC2C3=C(CCN2C(=O)C2CCC2)CC2(CC3)OCCO2)cc1O (centres undefined)	31.6	84.4	> 100	46.2	> 100	> 100	> 100	> 100	> 100	> 100	35.4	44.6	> 100	> 100	> 100	> 100	> 100	> 100	1.49	–
Clc1c(Cl)c(Cl)c2c(nnn2C2CCCO2)c1Cl (centres undefined)	74.3	48.7	77.9	67	–	> 100	> 100	> 100	> 100	> 100	> 100	49.3	> 100	80.4	–	> 100	> 100	65.1	–	–
NC1=NC2=c3ccccc3=C(c3cnccn3)C2(c2cnccn2)c2ccccc21 (centres undefined)	–	> 100	> 100	> 100	> 100	> 100	> 100	> 100	–	> 100	81.4	> 100	> 100	> 100	> 100	> 100	–	> 100	> 100	–
O=C(Cn1cc(-c2ccccc2)nn1)NC1CCCCC1	–	> 100	> 100	> 100	> 100	> 100	> 100	> 100	–	> 100	–	> 100	–	> 100	> 100	> 100	> 100	> 100	–	> 100
CC(=O)OCC(C)C1=C(OC(C)=O)C(=O)C2(C)C/C=C(/C)CC/C=C(\C)CCC(OC(C)=O)C(C)CCC12 (centres undefined)	33.5	33.4	40.9	34	33.8	36.5	30.2	39	89	31.3	–	–	28	–	35.3	35	38.2	–	31.2	–
O=C(C=C1SCCS1)/C=C\c1ccc(Cl)cc1	–	> 100	> 100	–	> 100	> 100	> 100	> 100	–	–	> 100	> 100	> 100	> 100	> 100	> 100	–	> 100	> 100	–
CCCCCCCCOCC(O)COC(C)C (centres undefined)	–	96.6	52.8	> 100	> 100	73.1	> 100	> 100	–	> 100	32.9	88	> 100	> 100	51.9	> 100	–	> 100	> 100	–
CC(OC(C)(C)C)C1NC(=O)C(CCCCNC(=O)OC(C)(C)C)NC(=O)C(Cc2c[nH]c3ccccc23)NC(=O)C(Cc2ccccc2)NC(=O)[C@H]2CCC[C@H]2NC(=O)C(Cc2ccccc2)NC1=O (some centres undefined) (cyclo([X27][ξF][ξW][ξK](Boc)[ξT](tBu)[ξF]))	> 100	> 100	> 100	> 100	> 100	88.6	16.1	–	> 100	> 100	> 100	> 100	> 100	> 100	> 100	> 100	> 100	> 100	> 100	–
CC(=O)C1C(=O)C(=O)N(c2ccccc2)C1=O (centres undefined)	> 100	–	> 100	> 100	> 100	> 100	> 100	> 100	–	> 100	> 100	> 100	> 100	–	–	> 100	> 100	> 100	> 100	> 100
CC(=O)OC(CN1CCN(c2ccccn2)CC1)Cn1sc2nc(C)cc(C)c2c1=O (centres undefined)	–	94	> 100	42.2	42.2	37.2	26.1	31.3	76.8	32.1	50.7	43	30	32.6	> 100	32.9	34	45.8	30.2	33.2
